For two compounds, ED50 results are on record in US4322546A, “15-Deoxy-16-hydroxy-16-allenyl prostane derivatives of the E and F series” (American Cyanamid Company, priority 1980, dated 1982).

Common to all, as to type: in vivo, Guinea-Pigs
Experiment [1] relates to bronchospasms elicited by intravenous injections of serotonin. The experiment is described as follows: bronchodilator activity, Konzett procedure, against serotonin-induced bronchospasm. To be noted: Cavia porcellus; three logarithmic cumulative intravenous doses; spasmogen serotonin i.v. The procedure: (§1) The bronchodilator activity for representative compounds of this invention was determined in Guinea-Pigs against bronchospasms elicited by intravenous injections of serotonin, histamine, and acetylcholine, by the Konzett procedure, the details of which are discussed by J. Lulling, P. Lievens, F. El Sayed and J. Prignot, Arzeimittel-Forschung 18, 995 (1968).
(§2) In the table which follows, bronchodilator activity for representative compounds of the invention against spasmogenic agents serotonin, histamine, and acetylcholine is expressed as an ED50 determined from the results obtained with three logarithmic cumulative intravenous doses.

The subject of experiment [2] is bronchospasms elicited by intravenous injections of histamine. The experiment is described as follows: bronchodilator activity, Konzett procedure, against histamine-induced bronchospasm. Conditions: Cavia porcellus; three logarithmic cumulative intravenous doses; spasmogen histamine i.v. As for the experimental part:
as §1, §2

The test system of experiment [3] is bronchospasms elicited by intravenous injections of acetylcholine. The experiment in a line: bronchodilator activity, Konzett procedure, against acetylcholine-induced bronchospasm. Conditions: Cavia porcellus; three logarithmic cumulative intravenous doses; spasmogen acetylcholine i.v. The procedure:
as §1, §2

The ED50 is the dose that gives a 50% effect, or the effect in half of the subjects. A lower ED50 goes with an effect at a small dose. As for `C=C=CC(O)(C/C=C/[C@H]1[C@H](O)CC(=O)[C@@H]1C/C=C\CCCC(=O)O)CCCC` (relative stereo) [dl 15-deoxy-16-hydroxy-16-allenyl-PGE2, dl-11α,16-dihydroxy-9-oxo-16-allenyl-5-cis-13-trans prostadienoic acid], the values for the ED50 in experiment [1], in experiment [2] and in experiment [3] were 1.4 µg/kg, 1 µg/kg and 1.2 µg/kg, respectively.

Regarding `C=C=CC(O)(C/C=C/[C@H]1[C@H](O)CC(=O)[C@@H]1CCCCCCC(=O)O)CCCC` (relative stereo) [dl 15-deoxy-16-hydroxy-16-allenyl-PGE1, dl-11α,16-dihydroxy-9-oxo-16-allenyl-13-trans prostenoic acid], the ED50 in experiment [1] stood at 1.05 µg/kg; in experiment [2], 1 µg/kg; in experiment [3] it was 1.2 µg/kg.
